Laboratory results from US20240269313A1, “CONJUGATES COMPRISING A PHOSPHORUS(V) MOIETY AND A DRUG” (Tubulis GmbH, priority 2022, published 2024).

Experiments:
[1] = tested on: HER2+ cell lines (N87 and SKBR3); assay: In vitro efficacy with hydroxy-containing drugs (aromatic and aliphatic alcohols); type: cell-based; conditions: unconjugated drug
Text: The scope of the linker system of conjugates in accordance with embodiments of the invention has been evaluated with further phenol-(or aromatic alcohol-) containing drugs OTS-964, Ganetespib and Birabresib. OTS-964 is a potent TOPK inhibitor, Ganetespib is a potent […], and Birabresib is a potent bromodomain inhibitor. […] Potency of the free payloads (OTS-964, Ganetespib and Birabresib) in the respective cell lines is also shown.
The scope of the linker system described herein has been also evaluated with further aliphatic alcohol-containing drugs SNX-2112, Gemcitabine and Barasertib. SNX-2112 is a potent HSP90-inhibitor, Gemcitabine is a potent ribonucleotide reductase inhibitor, and Barasertib is a potent Aurora B kinase inhibitor. […] Potency of the free payloads (SNX-2112, Gemcitabine and Barasertib) in the respective cell lines is also shown.

[2] = tested on: Trop2-positive cell lines; assay: In vitro cell viability (in vitro potency) of SN38 based ADCs; conditions: various target-positive cell lines
Description: Antibody-drug conjugates (ADCs) comprising the anti-Trop2 antibody Sacituzumab, a phosphorus(V) moiety according to embodiments of the present invention, and SN38 as drug were tested in in vitro potency assays against various Trop2-positive cell lines. The corresponding ADCs with the non-targeted antibody Trastuzumab were used as isotype control. For direct comparison, the approved and marketed ADC Trodelvy comprising Sacituzumab, a CL2A linker and SN38 as drug was also tested. The corresponding ADC with Trastuzumab was used as isotype control.
Linkers have been conjugated to Sacituzumab (anti-Trop2) and Trastuzumab (anti Her2, isotype in this setting) and tested on a panel of 4 different cell lines. All cell lines were Trop+ and Her2−. Trastuzumab conjugates serve as isotype control in this setting. […] Sacituzumab-CL2A-SN38 is Trodelvy and has been purchased for the experiment.

For CC(C)c1cc(-c2n[nH]c(=O)n2-c2ccc3c(ccn3C)c2)c(O)cc1O [Ganetespib], the “activity of free payload” value [1] was “highest activity as free payload”.
In the case of Cc1sc2c(c1C)C(c1ccc(Cl)cc1)=N[C@@H](CC(=O)Nc1ccc(O)cc1)c1nnc(C)n1-2 [Birabresib], the “activity of free payload” value [1] is reported as “lower activities of the unconjugated drugs”.
With “Sacituzumab conjugated to O—P5(PEG12)-amidopentyl-Phosphoramidate-N-(4-Methylbenzyl)-O—SN38” the “in vitro potency, non-cleavable control vs cleavable conjugate” value [2] was “not active in the in vitro cell viability assay”.
For Cc1cc(O)c(-c2ccc(C(C)CN(C)C)cc2)c2c1[nH]c(=O)c1sccc12 (stereo not shown) [OTS-964], the “activity of free payload” value [1] was “lower activities of the unconjugated drugs”.
